From patent publication US20240216407A1, “NOVEL POLYPHENOL COMPOUND” (NABOCUL COSMETICS CO., LTD., priority 2021, published 2024)

Test system: collagen gene (COL1A1 gene)
Assay: Promotion of collagen gene (COL1A1) mRNA expression in HaCaT cells, real-time PCR (QPCR)
Type: cell-based, human
Conditions: for increase of the expression level of the collagen gene (COL1A1 mRNA) compared to the control: 24 hours culture
Method: The OLANDU obtained in Example 2 was used to examine the effect of promoting the expression of collagen gene (COL1A1 gene) in a HaCaT cell that is a human epidermis-derived keratinocyte cell line.
First, the HaCaT cells were cultured in a DMEM medium (containing 10% FBS, 100 U/mL penicillin and […] streptomycin) in the presence of 5% CO2 at 37° C. and saturated humidity. Next, the HaCaT cells adjusted to a cell concentration of 5×10^5 cells/mL were seeded in each well of a 6-well cell culture plate and cultured in a CO2 incubator (5% CO2, 37° C.) for 24 hours. Thereafter, the OLANDU isolated in Example 2 was added to each well to provide a final concentration different from each other. Specifically, the final concentrations of OLANDU in the HaCaT cell culture medium were 1 μM, 5 μM, 10 μM, 50 μM and 100 μM, respectively. A well to which the OLANDU had not been added was used as a control (0 μM). After addition, they were subjected to culture for 24 hours.
After completion of the culture, the HaCaT cells were collected from each well, and total RNA was extracted with an RNA extraction reagent (RNAzol®, a product available from Molecular Research Center, Inc.). The concentration of total RNA obtained by extraction was confirmed with an ultratrace spectrophotometer (NanoDrop; a product available from Thermo Fisher Scientific). To this total RNA were added an oligo dT primer, a dNTP Mix, a 5×1st strand buffer, an RNase inhibitor, DTT and an M-MLV reverse transcriptase to synthesize cDNA from the total RNA. This cDNA was subjected to real-time PCR (QPCR) to measure the expression level of the collagen gene.
QPCR was performed with a commercially available QPCR reagent kit and QPCR measurement device (LightCycler® 480; a product available from Roche Diagnostics K. K.), and the detection was performed with SYBR® Green that is a double-stranded DNA-binding fluorescent dye. The COL1A1 gene encoding the α1 chain of type I collagen was selected as a target gene, and the primers of SEQ ID NOs: 1 and 2 shown in Table 1 below were used as QPCR primers. […]

**Q.** Which “increase of the expression level of the collagen gene (COL1A1 mRNA) compared to the control” value (OLANDU 1 μM, control = 100) does the source give for `COc1ccc(/C=C/C(=O)OC[C@H]2O[C@H](OC(=O)c3cc(O)c(O)c(O)c3)[C@H](O)[C@@H](O)[C@@H]2O)cc1O` [OLANDU] here?
**A.** Its value is “approximately two-fold”.

**Q.** What about the “increase of the expression level of the collagen gene (COL1A1 mRNA) compared to the control” value (OLANDU 10 μM, control = 100, highest expression-promoting action) of the same compound?
**A.** Its value is “more than three-fold”.

**Q.** And the “expression level of the collagen gene (COL1A1 mRNA) compared to the control without OLANDU” value (OLANDU 1, 5, 10, 50 and 100 μM, 24 hours culture (FIG. 11))?
**A.** The value was “greatly increased the expression level of the collagen gene”.
